Reference: patent US20060073504A1, “Treatment of pain by inhibition of caspase signaling” (The Regents of the University of California, priority 2004, published 2006)
Entries after “also recorded” stand apart in the source; their conditions may differ. Structures can show the parent of a compound that is named as a salt. Where two headings read alike, the source gives them in different places. * marks the point of attachment. Cbz = O=C(OCc1ccccc1)*; CH2F = FC*

Experiments:
[1] = tested on: mechanical hyperalgesia induced by vincristine (VCR); assay: Vincristine-induced mechanical hyperalgesia, paw-withdrawal threshold; assay type: in vivo, rat; conditions: inhibitor 5 μg i.d. hind paw, day 5 after VCR 200 μg/kg i.v., read 30 min after inhibitor, p<0.05
Experimental: (§1) Experiments were performed on 220-260-g male Sprague-Dawley rats (Charles River, Fremont, Calif., USA). Rats were housed in groups of 2 under a 12-h light-dark cycle. Food and water were available ad libitum. Experiments were carried out in accordance with NIH regulations for the care and use of animals in research, and under approval of the Institutional Animal Care and Use Committee of the University of California, San Francisco.
(§2) The nociceptive mechanical flexion reflex was quantified with an Ugo Basile Analgesymeter® (Stoelting, Chicago, Ill.), which applies a linearly increasing mechanical force to the dorsum of the rat's hind paw. Mechanical paw-withdrawal thresholds were determined in control (saline treated) and test agent treated rats. Four readings were taken at 5-min intervals and the mean of the last three readings were used to define the baseline paw-withdrawal threshold (Aley and Levine, 1999; Aley et al., 2001). The time at which the readings were taken was based on the time course of each test agent (described in results).
(§3) Algesic agents employed in this study were: vincristine sulfate (VCR), 2′,3′-dideoxycytidine (ddC), streptozotocin sulfate (STZ), tumor necrosis factor-α (TNFα) prostaglandin E2 (PGE2), epinephrine (Epi) (Sigma, St. Louis, Mo.) and N-Acetyl Sphingosine (C2-Ceramide obtained from Upstate USA, Inc, Lake Placid, N.Y.). Doses of the algesic agents were, VCR (200 μg/kg), ddC (50 mg/kg), STZ (50 mg/kg), PGE2 (100 ng/paw) and Epi (100 ng/paw). A single i.v. injection of VCR (200 μg/kg) produced significant mechanical hyperalgesia (>30 % reduction in paw-withdrawal threshold). This effect reached maximum on day 5 following the drug administration and was persistent for more then 15 days (Joseph, 2003 #5). STZ (50 mg/kg, i.v.×1), induced diabetes in rats, as indicated by with a blood glucose level >300 mg/dL, and a nociceptive threshold reduction (>30%). This effect reached maximum on day 3 following administration of the neuropathy inducing drug and was persistent for over 15 days (Joseph, 2003 #4).
(§4) TNFα, C2-Ceramide, PGE2, Epi, and all the inhibitors (see Table I) were administered intradermally (i.d.) on the dorsal surface of the hind paw in a volume of 2.5-5.0 μl, via a 30-gauge hypodermic needle. In co-injection experiments, agents were separated by very small air pockets, in one syringe, so that they could be administered with a single cutaneous needle penetration. As a control, all inhibitors were studied for independent effects on baseline nociceptive threshold. Inhibitors were either co-injected (with TNFα, C2-Ceramide, PGE2, and Epi) or administered on day five following the administration of VCR, ddC and STZ. Drugs were either dissolved in saline (VCR, ddC, STZ, TNF-α, PGE2, Epi) or in 10% DMSO (C2-Ceramide and inhibitors).
(§5) Group data are presented as % reduction in nociceptive threshold (mean+/±SEM) and comparisons between groups performed using Student's t-test (paired or unpaired, as appropriate). A probability of p<0.05 was considered statistically significant.
FIG. 2 depicts the effect of inhibitors of caspases, administered in the hind paw of the rat, on mechanical hyperalgesia induced by the cancer chemotherapy drug Vincristine (VCR). The effect of inhibitors of caspase 1, 2, 3, 8, 9, the non-selective broad-spectrum caspase inhibitor (NS) and the negative control for the non-selective broad-spectrum caspase inhibitor [NS (Con)] on the nociceptive paw-withdrawal thresholds were evaluated. Paw-withdrawal thresholds were measured on the 5th day after injection of VCR and 30 min after the administration of the inhibitors. N=8/group, *=p<0.05, with respect to the value prior to injection of the inhibitor.

[2] = tested on: mechanical hyperalgesia induced by 2′,3′-dideoxycytidine (ddC); assay: ddC-induced mechanical hyperalgesia, paw-withdrawal threshold (Ugo Basile Analgesymeter); assay type: in vivo, rat; conditions: inhibitor 5 μg i.d. hind paw, day 5 after ddC 50 mg/kg i.v., read 30 min after inhibitor, p<0.05
Experimental: as §1, §2, §3, §4, §5
FIG. 1 depicts the effect of inhibitors of caspases administered in the hind paw of the rat, on mechanical hyperalgesia induced by the AIDS therapy drug 2′,3′-dideoxycytidine (ddC). The effect of inhibitors of caspase 1 (BACMK), 2 (Z-VDAD-FMK), 3 (Ac-DMQD-CHO), 8 (IETD-CHO), 9 (Z-LEHD-FMK.TFA), the non-selective broad-spectrum caspase inhibitor (NS) Z-VAD-FMK and the negative control for the non-selective broad-spectrum caspase inhibitor Z-FA-FMK [NS (Con)] on the nociceptive paw-withdrawal thresholds of rats were evaluated. Paw-withdrawal thresholds were measured on the 5th day after injection of ddC and 30 min after the administration of inhibitors. N=8/group, *=p<0.05, with respect to mechanical nociceptive threshold prior to injection of the inhibitor.

[3] = tested on: mechanical hyperalgesia induced by ceramide; assay: C2-ceramide-induced mechanical hyperalgesia, inhibitors co-injected; assay type: in vivo, rat; conditions: inhibitor 5 μg co-injected i.d. with C2-ceramide 10 μg, read at 1 hr; p<0.05
Experimental: as §1, §2
Inhibitors of caspases and neutral sphingomyelinase are described in Table I, which is repeated for convenience. […]
FIG. 6 depicts the effect of inhibitors of caspases on mechanical hyperalgesia induced by ceramide. […] The inhibitors were co-injected with ceramide and paw-withdrawal thresholds measured 1 hr after the drug administration. […]

[4] = tested on: mechanical hyperalgesia induced by TNF-α; assay: TNFα-induced mechanical hyperalgesia, inhibitors co-injected; assay type: in vivo, rat; conditions: read at 30 min
Experimental: as §1, §2
Inhibitors of caspases and neutral sphingomyelinase are described in Table I, which is repeated for convenience. The doses of TNFα (100 ng) and C2-Ceramide (10 μg) were based on dose response experiments performed as part of this study. VCR, STZ, and ddC were administered intravenously (i.v.) in a volume of 1 ml/kg, followed by 0.5 ml saline. Control rats received equal volume of saline. […]
FIG. 4 depicts the effect of inhibitors of caspases and sphingomyelinase on mechanical hyperalgesia induced by tumor necrosis factor alpha (TNF-α). The effect of inhibitors of caspase 1, 2, 3, 8, 9, the non-selective broad-spectrum caspase inhibitor (NS), the negative control for the non-selective broad-spectrum caspase inhibitor [NS (Con)], and the neutral sphingomyelinase inhibitor (GW4869) on the nociceptive paw-withdrawal thresholds of rats was evaluated. The inhibitors were co-injected with TNF-α and the paw-withdrawal thresholds measured 30 min after the drug administration. […]

[5] = tested on: mechanical nociceptive threshold; assay: Effect of algesic agents on mechanical nociceptive (paw-withdrawal) threshold; assay type: in vivo, rat; conditions: for effect on mechanical nociceptive threshold, dose response: intradermal injection, TNFα 1 ng-1 μg, C2-ceramide 1 μg-20 μg; for reduction in nociceptive threshold: 100 ng/paw i.d.
Experimental: as §1, §2
Algesic agents employed in this study were: vincristine sulfate (VCR), 2′,3′-dideoxycytidine (ddC), streptozotocin sulfate (STZ), tumor necrosis factor-α (TNFα) prostaglandin E2 (PGE2), epinephrine (Epi) (Sigma, St. Louis, Mo.) and N-Acetyl Sphingosine (C2-Ceramide obtained from Upstate USA, Inc, Lake Placid, N.Y.). Doses of the algesic agents were, VCR (200 μg/kg), ddC (50 mg/kg), STZ (50 mg/kg), PGE2 (100 ng/paw) and Epi (100 ng/paw).
Inhibitors of caspases and neutral sphingomyelinase are described in Table I, which is repeated for convenience. The doses of TNFα (100 ng) and C2-Ceramide (10 μg) were based on dose response experiments performed as part of this study. VCR, STZ, and ddC were administered intravenously (i.v.) in a volume of 1 ml/kg, followed by 0.5 ml saline. Control rats received equal volume of saline.
as §4
FIG. 3 depicts: A. Dose response (1 ng-1 μg) curve for the effect of TNF-α on mechanical nociceptive threshold, and B. Onset and time course of mechanical hyperalgesia induced by 100 ng of TNF-α. N=6/group.
FIG. 5 depicts the dose response (1-20 μg) curve for the effect of ceramide on the mechanical nociceptive threshold. N=6/group.

[6] = tested on: mechanical nociceptive threshold; conditions: cited from earlier work
[7] = STZ 50 mg/kg i.v. ×1; cited from earlier work
[8] = listed as inhibitor of caspase 3
[9] = single i.v. injection: VCR 200 μg/kg, STZ 50 mg/kg

IETD-CHO
effect on vincristine-induced mechanical hyperalgesia [1]: significantly attenuated hyperalgesia | effect on ddC-induced mechanical hyperalgesia [2]: significantly attenuated hyperalgesia

Z-Phe-Ala-CH2F [Z-FA-FMK]
effect on C2-ceramide-induced hyperalgesia [3]: not | effect on TNFα-induced hyperalgesia ([4]; inhibitor 5 μg co-injected i.d. with TNFα 100 ng, p<0.05): not

TNFα
latency to onset of hyperalgesia ([5]; TNFα 100 ng i.d.): approximately 5 minutes | time course of hyperalgesia ([5]; TNFα 100 ng i.d., at 3 hours): not attenuated at 3 hours | effect on mechanical nociceptive threshold, dose response [5]: dose-dependent (1 ng-1 μg) decrease in mechanical nociceptive threshold

CC(C)(C)OC(=O)N[C@@H](CC(=O)OCc1ccccc1)C(=O)CCl [BACMK, Boc-Asp(Obzl)-CMK]
effect on vincristine-induced mechanical hyperalgesia [1]: significantly attenuated hyperalgesia | effect on ddC-induced mechanical hyperalgesia [2]: significantly attenuated hyperalgesia

CCCCC[C@H](O)/C=C/[C@H]1[C@H](O)CC(=O)[C@@H]1C/C=C\CCCC(=O)O [PGE2, prostaglandin E2]
reduction in nociceptive threshold [5]: significant reduction in nociceptive threshold

Ac-Asp-Met-Gin-Asp-CHO [Ac-DMQD-CHO]
effect on vincristine-induced mechanical hyperalgesia [1, 8]: significantly reversed mechanical hyperalgesia; also recorded: only moderately attenuated | effect on ddC-induced mechanical hyperalgesia [2, 8]: significantly reversed mechanical hyperalgesia; also recorded: markedly attenuating ddC hyperalgesia

Cbz-VD(OMe)VAD(OMe)-CH2F [Z-VDAD-FMK]
effect on vincristine-induced mechanical hyperalgesia [1]: significantly attenuated hyperalgesia | effect on ddC-induced mechanical hyperalgesia [2]: significantly attenuated hyperalgesia

CC[C@]1(O)C[C@H]2CN(CCc3c([nH]c4ccccc34)[C@@](C(=O)OC)(c3cc4c(cc3OC)N(C=O)[C@H]3[C@@](O)(C(=O)OC)[C@H](OC(C)=O)[C@]5(CC)C=CCN6CC[C@]43[C@@H]65)C2)C1 [VCR, vincristine sulfate]
day of maximum hyperalgesic effect after drug administration [6, 9]: 5 days

CCCCCCCCCCCCC/C=C/[C@@H](O)[C@H](CO)NC(C)=O [C2-ceramide, N-Acetyl Sphingosine]
effect on mechanical nociceptive threshold, dose response [5]: dose-dependent hyperalgesia

Nc1ccn([C@H]2CC[C@@H](CO)O2)c(=O)n1 [ddC, 2′,3′-dideoxycytidine]
reduction in nociceptive threshold ([6]; single dose ddC 50 mg/kg i.v., from day 1): significant reduction in nociceptive threshold | persistence of hyperalgesia ([6]; single i.v. injection: VCR 200 μg/kg, STZ 50 mg/kg, ddC 50 mg/kg): over 20 days

CN(N=O)C(=O)N[C@@H]1[C@@H](O)[C@H](O)[C@@H](CO)O[C@@H]1O [STZ, streptozotocin sulfate]
day of maximum hyperalgesic effect after drug administration [6, 9]: 3 days | blood glucose level [7]: > 300 mg/dL

Z-Leu-Glu(OMe)-His-Asp-(OMe)FMK [Z-LEHD-FMK.TFA]
effect on vincristine-induced mechanical hyperalgesia [1]: significantly attenuated hyperalgesia | effect on ddC-induced mechanical hyperalgesia [2]: significantly attenuated hyperalgesia

CNC[C@H](O)c1ccc(O)c(O)c1 [Epi, epinephrine]
reduction in nociceptive threshold [5]: significant reduction in nociceptive threshold

O=C(/C=C/c1ccc(/C=C/C(=O)Nc2ccc(C3=NCCN3)cc2)cc1)Nc1ccc(C2=NCCN2)cc1 [GW4869]
effect on TNFα-induced hyperalgesia ([4]; sphingomyelinase inhibitor 1 μg co-injected i.d. with TNFα 100 ng): markedly attenuated
